Assay [1] deals with marine bacteria (26 strains). Briefly: Disk inhibition assay. The note with it: for zone of inhibition at 25 µg/disc: 25 μg per disc; for zone of inhibition at 50 µg/disc: 50 μg per disc. Type of assay: cell-based, marine bacteria isolated from Singapore fouling communities. Put shortly:
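Tablets or capsule powders suspended in sterile water at 2 mg ml^−1 and loaded onto disks; antibiotic discs (Amp, Ery, Str, Tet) served as comparison. Disks placed on swabbed lawns on Marine Agar, incubated overnight in the dark at 30° C. Zone of clearing diameter measured by calipers; three replicates on three occasions.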

In a further assay the test system is marine bacteria. Briefly: Growth assay (absorbance, 96-well plates). It is filed as cell-based, marine bacteria isolated from Singapore fouling communities. Here is the method: The dried powder was re-suspended in sterile deionized water and made up to 2 mg ml^−1.
The same bacterial strains were used and cultured the same way as in disc inhibition assay. Cells were harvested by centrifugation at 300 rpm for 10 min. The supernatant was discarded and the pellet re-suspended using sterile seawater collected from St. John's island, Singapore. The concentration of bacterial cells was adjusted to an absorbance of approximately 0.6 using a spectrophotometer (Beckman DU530) at wavelength 600 nm.
The growth with response to the pharmaceuticals was assumed to be proportional to the absorbance of the bacteria. […] To each well 25 μl of each drug solution (concentration adjusted to 100 μg ml^−1) were pipetted into three wells followed by 10 μl of broth and 65 μl of sterile seawater. For wells that were to contain bacteria, 60 μl of sterile seawater was used instead. All wells used for growth studies were prepared in triplicate and inoculated with 5 μl of the bacterial suspension. Blanks consisting of the respective volumes of pharmaceutical with Marine Broth and distilled water, if needed, were prepared in triplicate and inoculated with 5 μl of sterile seawater.
The absorbance (A600) of each well was read in a plate reader (Sunrise Tecan Model F039300) immediately (time=0 hours) and after 1, 2, 3, 4, 20, 23 and 28 hours. Plates were incubated overnight inside a moistened airtight container.
Any changes in absorbance were plotted and compared with control. The mean absorbance (mean bac) from the bacteria was obtained by deducting the absorbance values of blank wells (containing seawater and broth only) from that for the control wells (containing bacteria in seawater and broth only). The absorbance arising from the drugs was obtained from the 0 hr reading for wells containing drugs and bacteria, minus the wells with drugs alone (mean “drug”). The growth assays were repeated three times.

Where [2] appears, read: crude rank, best (1) to worst (8).

Where “and” joins values, the source holds several entries; their conditions need not be identical. Equal entries are not always repeated. Structures can show the parent of a compound that is named as a salt. Where two headings read alike, the source gives them in different places.

For the compound `CN1CCN(C(c2ccccc2)c2ccccc2)CC1` [CYZ, Cyclizine hydrochloride], the “Antibiotic activity against marine bacteria” value (“Antibiotic activity” below) is recorded as “did not have any appreciable antibiotic activity against marine bacteria” in assay [1] (25 or 50 μg per disc, in words) and 8 in assay [1] (setting [2]).
On the same counts, the results for `CCCCCCCCCC(=O)OC1(c2ccc(Cl)cc2)CCN(CCCC(=O)c2ccc(F)cc2)CC1` [HDL, haloperidol decanoate] are “did not have any appreciable antibiotic activity against marine bacteria” and 8.
The matching figures for `CN(C)C(=O)C(CCN1CCC(O)(c2ccc(Cl)cc2)CC1)(c1ccccc1)c1ccccc1` [IMD, Loperamide hydrochloride]: “did not have any appreciable antibiotic activity against marine bacteria” and 8.
As for `CN1CCN(CCCN2c3ccccc3Sc3ccc(Cl)cc32)CC1` [PCZ, prochlorperazine maleate], the “Number of strains with strongly inhibited growth” value with marine bacteria (25 μg ml^−1, 25 strains of Table 5) was found to be 11. Besides, in the assay with marine bacteria (25 μg ml−1, strain named in the value), the “Growth response (absorbance over time)” value is recorded as “slight growth response of bacteria strain 11”. The “Inhibition of bacterial growth” value in the assay on marine bacteria (strain 1 (Rhodovulum), 25 μg ml^−1) is given as 0; with marine bacteria (strain 2 (Erythrobacter), 25 μg ml^−1) it was 0; with marine bacteria (strain 3 (Erythrobacter), 25 μg ml^−1) it was “+++ (+++ denotes little or no growth, p < 0.001)”; in the assay with marine bacteria (strain 4 (Bacillus), 25 μg ml^−1), “+++ (+++ denotes little or no growth, p < 0.001)”; with marine bacteria (strain 6 (Vibrio), 25 μg ml^−1), 0; in the assay on marine bacteria (strain 7 (Vibrio), 25 μg ml^−1) it was “+ (+ denotes growth present but inhibited, p < 0.01)”. The “Inhibition of bacterial growth” value with marine bacteria (strain 8 (Bacillus), 25 μg ml^−1) is recorded as “+++ (+++ denotes little or no growth, p < 0.001)”; with marine bacteria (strain 9 (Bacillus), 25 μg ml^−1) it was “+++ (+++ denotes little or no growth, p < 0.001)”; in the assay on marine bacteria (strain 10 (Halobacillus), 25 μg ml^−1) it was “+++ (+++ denotes little or no growth, p < 0.001)”; with marine bacteria (strain 11 (Pseudomonas), 25 μg ml^−1) it was “+ (+ denotes growth present but inhibited, p < 0.01)”; in the assay with marine bacteria (strain 12 (Gordonia), 25 μg ml^−1) it was “+++ (+++ denotes little or no growth, p < 0.001)”; in the assay on marine bacteria (strain 13 (Bacillus), 25 μg ml^−1) it was “+++ (+++ denotes little or no growth, p < 0.001)”. The “Inhibition of bacterial growth” value in the assay on marine bacteria (strain 14 (Vibrio), 25 μg ml^−1) was 0; in the assay on marine bacteria (strain 16 (Pseudoalteromonas), 25 μg ml^−1) it was 0; in the assay on marine bacteria (strain 17 (Gordonia), 25 μg ml^−1), “+++ (+++ denotes little or no growth, p < 0.001)”; in the assay with marine bacteria (strain 18 (Microbacterium), 25 μg ml^−1) it was “+++ (+++ denotes little or no growth, p < 0.001)”; with marine bacteria (strain 19 (Erythrobacter), 25 μg ml^−1), “+++ (+++ denotes little or no growth, p < 0.001)”; with marine bacteria (strain 20, 25 μg ml^−1) it was “+ (+ denotes growth present but inhibited, p < 0.01)”. Also, the “Inhibition of bacterial growth” value in the assay with marine bacteria (strain 21, 25 μg ml^−1) is on record as 0; in the assay on marine bacteria (strain 24, 25 μg ml^−1) it was 0; in the assay with marine bacteria (strain 26, 25 μg ml^−1) it was 0; with marine bacteria (strain 27, 25 μg ml^−1), “+ (+ denotes growth present but inhibited, p < 0.01)”; with marine bacteria (strain 28, 25 μg ml^−1) it was 0; in the assay on marine bacteria (strain 29, 25 μg ml^−1), “+ (+ denotes growth present but inhibited, p < 0.01)”. For the same compound, the “Inhibition of bacterial growth” value with marine bacteria (strain 30, 25 μg ml^−1) is “+++ (+++ denotes little or no growth, p < 0.001)”. Moreover, the “Antibiotic activity” value in assay [1] is reported as “strongest activity”; in assay [1] (setting [2]) it was 3. For the same compound, the zone of inhibition (commonly the extent of the growth-free halo in a diffusion test) at 25 µg/disc was below 5 mm in assay [1] (strain 1 (Rhodovulum)); below 5 mm in assay [1] (strain 2 (Erythrobacter)); 10 to 19 mm in assay [1] (strain 3 (Erythrobacter)); 10 to 19 mm in assay [1] (strain 4 (Bacillus)); below 5 mm in assay [1] (strain 6 (Vibrio)); below 5 mm in assay [1] (strain 7 (Vibrio)). Besides, the zone of inhibition at 25 µg/disc in assay [1] (strain 8 (Bacillus)), in assay [1] (strain 9 (Bacillus)), in assay [1] (strain 10 (Halobacillus)), in assay [1] (strain 11 (Pseudomonas)), in assay [1] (strain 12 (Gordonia)) and in assay [1] (strain 13 (Bacillus)) was 10 to 19 mm each time. Moreover, the zone of inhibition at 25 µg/disc in assay [1] (strain 14 (Vibrio)) was below 5 mm; in assay [1] (strain 16 (Pseudoalteromonas)), below 5 mm; in assay [1] (strain 17 (Gordonia)), 10 to 19 mm; in assay [1] (strain 18 (Microbacterium)), 10 to 19 mm; in assay [1] (strain 19 (Erythrobacter)), 10 to 19 mm; in assay [1] (strain 20) it was 10 to 19 mm. Besides, the zone of inhibition at 25 µg/disc in assay [1] (strain 21) was below 5 mm; in assay [1] (strain 22), 10 to 19 mm; in assay [1] (strain 24) it was 10 to 19 mm; in assay [1] (strain 26), 5 to 9 mm; in assay [1] (strain 27) it was 5 to 9 mm; in assay [1] (strain 28), 10 to 19 mm. Moreover, the zone of inhibition at 25 µg/disc in assay [1] (strain 29) and in assay [1] (strain 30) was 10 to 19 mm throughout. Moreover, the zone of inhibition at 50 µg/disc in assay [1] (strain 1 (Rhodovulum)) is below 5 mm; in assay [1] (strain 2 (Erythrobacter)), below 5 mm; in assay [1] (strain 3 (Erythrobacter)) it was 10 to 19 mm; in assay [1] (strain 4 (Bacillus)), 10 to 19 mm; in assay [1] (strain 6 (Vibrio)), 5 to 9 mm; in assay [1] (strain 7 (Vibrio)), below 5 mm. The zone of inhibition at 50 µg/disc lay in the range of 10 to 19 mm in assay [1] (strain 8 (Bacillus)); 10 to 19 mm in assay [1] (strain 9 (Bacillus)); 10 to 19 mm in assay [1] (strain 10 (Halobacillus)); 10 to 19 mm in assay [1] (strain 11 (Pseudomonas)); 20 to 29 mm in assay [1] (strain 12 (Gordonia)); 10 to 19 mm in assay [1] (strain 13 (Bacillus)). Besides, the zone of inhibition at 50 µg/disc was below 5 mm in assay [1] (strain 14 (Vibrio)); below 5 mm in assay [1] (strain 16 (Pseudoalteromonas)); 20 to 29 mm in assay [1] (strain 17 (Gordonia)); 20 to 29 mm in assay [1] (strain 18 (Microbacterium)); 10 to 19 mm in assay [1] (strain 19 (Erythrobacter)); 10 to 19 mm in assay [1] (strain 20). Also, the zone of inhibition at 50 µg/disc in assay [1] (strain 21), in assay [1] (strain 22), in assay [1] (strain 24), in assay [1] (strain 26), in assay [1] (strain 27) and in assay [1] (strain 28) was 10 to 19 mm throughout. In addition, the zone of inhibition at 50 µg/disc in assay [1] (strain 29) and in assay [1] (strain 30) was 10 to 19 mm each time.
As to `Cc1nccn1CC1CCc2c(c3ccccc3n2C)C1=O` (stereo not drawn) [ZFN, ondansetron hydrochloride], the “Antibiotic activity” value in assay [1] (25 or 50 μg per disc, in words) is given as “did not have any appreciable antibiotic activity against marine bacteria”; in assay [1] (setting [2]), 8.
On to `Cc1cc2c(s1)Nc1ccccc1N=C2N1CCN(C)CC1` [ZPX, olanzapine], for which, in assay [1], the “Antibiotic activity” value is “did not have any appreciable antibiotic activity against marine bacteria and 8”.

Source of the values: patent publication US20060110456A1, “Method for biocidal and/or biostatic treatment and compositions therefor” (NATIONAL UNIVERSITY OF SINGAPORE, priority 2004, published 2006).
